Measured values taken from patent publication US8952024B2, “Herbicidal pyrimidone derivatives” (E I du Pont de Nemours and Company, priority 2009, dated 2015).

How the values were obtained:
Format in all cases: in vivo
[1] = tested on: barnyardgrass (Echinochloa crus-galli); assay: Test A pre-/postemergence plant response
In short: (§1)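 Greenhouse trial, ~10 days. Soil (loam/sand) sprayed preemergence after seeding; emerged plants (1–2 leaf, 2–10 cm) sprayed postemergence in parallel. Response = visual injury vs untreated control, 0–100.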

[2] = tested on: corn (Zea mays); assay: Test A pre-/postemergence plant response
In short: as §1

[3] = tested on: giant foxtail (Setaria faberii); assay: Test A pre-/postemergence plant response
In short: as §1

[4] = tested on: large crabgrass (Digitaria sanguinalis); assay: Test A pre-/postemergence plant response
In short: as §1

[5] = tested on: morningglory (Ipomoea spp.); assay: Test A pre-/postemergence plant response
In short: as §1

[6] = tested on: pigweed (Amaranthus retroflexus); assay: Test A pre-/postemergence plant response
In short: as §1

[7] = tested on: velvetleaf (Abutilon theophrasti); assay: Test A pre-/postemergence plant response
In short: as §1

[8] = tested on: wheat (Triticum aestivum); assay: Test A pre-/postemergence plant response
In short: as §1

[9] = tested on: barnyardgrass (Echinochloa crus-galli); assay: Test B flooded paddy test; conditions: for Plant response rating, Barnyardgrass: Flood (flooded paddy test), 13 to 15 days
In short: (§2)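 Plants were grown to the 2-leaf stage, then pots were flooded to 3 cm above the soil and compounds were applied directly into the paddy water. That depth was held throughout. After 13 to 15 days in a greenhouse, injury was visually rated against controls on a 0–100 scale.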

[10] = tested on: ducksalad (Heteranthera limosa); assay: Test B flooded paddy test; conditions: for Plant response rating, Ducksalad: Flood (flooded paddy test), 13 to 15 days
In short: as §2

[11] = tested on: rice (Oryza sativa); assay: Test B flooded paddy test; conditions: for Plant response rating, Rice: Flood (flooded paddy test), 13 to 15 days
In short: as §2

[12] = tested on: umbrella sedge (Cyperus difformis); assay: Test B flooded paddy test; conditions: for Plant response rating, Sedge, Umbrella: Flood (flooded paddy test), 13 to 15 days
In short: as §2

[13] = Postemergence, 125 g ai/ha, 0 to 100 scale where 0 is no effect and 100 is complete control
[14] = Postemergence, 500 g ai/ha, 0 to 100 scale, 0 = no effect, 100 = complete control, approx. ten days
[15] = Preemergence, 125 g ai/ha, 0 to 100 scale, 0 = no effect, 100 = complete control
[16] = Preemergence, 500 g ai/ha, visual injury, 0 to 100 scale (0 no effect, 100 complete control), approx. ten days
[17] = 250 g ai/ha, flooded paddy test, visual rating on 0 to 100 scale (0 no effect, 100 complete control) after 13 to 15 days
[18] = 62 g ai/ha, scale of 0 to 100 where 0 is no effect and 100 is complete control
[19] = 125 g ai/ha, scale 0 to 100, 0 is no effect, 100 is complete control
[20] = Flood, 31 g ai/ha, scale 0 to 100 (0 no effect, 100 complete control)

## CCCn1c(-c2ccc(F)cc2)ncc(C(=O)C2=C(O)CCCC2=O)c1=O [Compound 102]
[1]; [13]
  Plant response rating, Barnyardgrass: 80
[1]; [14]
  Plant response rating, Barnyardgrass: 90
[1]; [15]
  Plant response rating, Barnyardgrass: 40
[1]; [16]
  Plant response rating, Barnyardgrass: 90
[2]; [13]
  Plant response rating, Corn: 0
[2]; [14]
  Plant response rating, Corn: 20
[2]; [15]
  Plant response rating, Corn: 0
[2]; [16]
  Plant response rating, Corn: 0
[3]; [13]
  Plant response rating, Foxtail, Giant: 80
[3]; [14]
  Plant response rating, Foxtail, Giant: 90
[3]; [15]
  Plant response rating, Foxtail, Giant: 80
[3]; [16]
  Plant response rating, Foxtail, Giant: 100
[4]; [13]
  Plant response rating, Crabgrass, Large: 90
[4]; [14]
  Plant response rating, Crabgrass, Large: 100
[4]; [15]
  Plant response rating, Crabgrass, Large: 80
[4]; [16]
  Plant response rating, Crabgrass, Large: 100
[5]; [13]
  Plant response rating, Morningglory: 100
[5]; [14]
  Plant response rating, Morningglory: 100
[5]; [15]
  Plant response rating, Morningglory: 80
[5]; [16]
  Plant response rating, Morningglory: 80
[6]; [13]
  Plant response rating, Pigweed: 100
[6]; [14]
  Plant response rating, Pigweed: 100
[6]; [15]
  Plant response rating, Pigweed: 60
[6]; [16]
  Plant response rating, Pigweed: 100
[7]; [13]
  Plant response rating, Velvetleaf: 100
[7]; [14]
  Plant response rating, Velvetleaf: 100
[7]; [15]
  Plant response rating, Velvetleaf: 80
[7]; [16]
  Plant response rating, Velvetleaf: 100
[8]; [13]
  Plant response rating, Wheat: 0
[8]; [14]
  Plant response rating, Wheat: 10
[8]; [15]
  Plant response rating, Wheat: 0
[8]; [16]
  Plant response rating, Wheat: 0
[9]; [17]
  Plant response rating, Flood, Barnyardgrass: 70
[9]; [18]
  Plant response rating, Barnyardgrass: 60
[9]; [19]
  Plant response rating, Barnyardgrass: 60
[9]; [20]
  Barnyardgrass plant response rating: 15
[10]; [17]
  Plant response rating, Flood, Ducksalad: 85
[10]; [18]
  Plant response rating, Ducksalad: 40
[10]; [19]
  Plant response rating, Ducksalad: 80
[10]; [20]
  Ducksalad plant response rating: 30
[11]; [17]
  Plant response rating, Flood, Rice: 35
[11]; [18]
  Plant response rating, Rice: 15
[11]; [19]
  Plant response rating, Rice: 20
[11]; [20]
  Rice plant response rating: 10
[12]; [17]
  Plant response rating, Flood, Sedge, Umbrella: 75
[12]; [18]
  Plant response rating, Sedge, Umbrella: 40
[12]; [19]
  Plant response rating, Sedge, Umbrella: 65
[12]; [20]
  Sedge, Umbrella plant response rating: 30
